The text below walks through data of US12257247B2 (Monte Rosa Therapeutics AG, priority 2023, dated 2025).

Molecules are shown by their SMILES. Where two headings read alike, the source gives them in different places.

The target in the assay is T1, VAV1 (Homo sapiens, UniProt P15498+Q96SW2).
T1 construct: A heterozygous VAV1 C-terminal HiBiT knock-in pool was generated at Monte Rosa Therapeutics from a clonal Jurkat cell; endogenous in cells; host or cells: Jurkat clone stably expressing LgBiT, homozygous GSPT1-G575N; heterozygous VAV1-HiBiT knock-in pool
The assay is described as follows: VAV1 degradation activity, VAV1-HiBiT knock-in Jurkat luminescence assay (Example A, Table 1). In kind it is cell-based. Particulars: VAV1-HiBiT knock-in Jurkat cells, luminescence read at 6 and 24 hours; for Dmax: Jurkat. A digest of the protocol:
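Jurkat cells carrying VAV1-HiBiT knock-in, plated in RPMI/10% FBS with Endurazine live-cell substrate and pre-incubated ~16 h at 37° C. Compound dosed from 10 μM stock; luminescence read 6 and 24 h later. Response normalised to plate negative/positive controls, EC50 from 3-parameter logistic fit (hillslope 1).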

Setting [1] is: read-out: VAV1 DC50 (nM), class.

Usually Dmax stands for the largest share of the target that was removed. By DC50 is commonly meant the concentration giving 50% degradation. Consider `O=C1CCC(c2cccc(-c3ccc(N4CCn5ccnc5C4=O)cc3)c2Cl)C(=O)N1` (stereo not drawn) [Compound 309], for which the maximal degradation (Dmax) was 89.6% (read-out: VAV1 Dmax %) and 60 to 90% (read-out: VAV1 Dmax %, class). For the same molecule, the DC50 is 39.4 nM (read-out: VAV1 DC50) and at most 100 nM under setting [1].
On to `CC(c1ccc(-c2cccc(C3CCC(=O)NC3=O)c2Cl)cc1)n1ccccc1=O` (stereo not drawn) [Compound 174, 3-(2-chloro-4′-(1-(2-oxopyridin-1(2H)-yl)ethyl)-[1,1′-biphenyl]-3-yl)piperidine-2,6-dione], for which the Dmax (read-out: VAV1 Dmax %) turned out to be 92.2% and the Dmax (read-out: VAV1 Dmax %, class) was over 90%. Moreover, the DC50 by setting is: (read-out: VAV1 DC50) 27.4 nM; under setting [1], at most 100 nM.
For `C[C@H]1COCC(=O)N1c1ccc(-c2cccc(C3CCC(=O)NC3=O)c2Cl)cc1` (stereo partly drawn) [Compound 325], the Dmax (read-out: VAV1 Dmax %) was 96.2% and the Dmax (read-out: VAV1 Dmax %, class) is over 90%. The DC50 reads like this: (read-out: VAV1 DC50) 6.66 nM; under setting [1], at most 100 nM.
In the case of `O=C1CCC(c2cccc(-c3ccc(NC(=O)c4ccno4)cc3)c2Cl)C(=O)N1` (stereo not drawn) [Compound 228, N-(2′-chloro-3′-(2,6-dioxopiperidin-3-yl)-[1,1′-biphenyl]-4-yl)isoxazole-5-carboxamide], the Dmax reads like this: (read-out: VAV1 Dmax %) 73.5%; (read-out: VAV1 Dmax %, class) 60 to 90%. The DC50 is, setting by setting: (read-out: VAV1 DC50) 190 nM; under setting [1], 100 to 1000 nM.
For `CC(C)(c1ccc(-c2cccc(C3CCC(=O)NC3=O)c2Cl)cc1)N1CCCCC1=O` (stereo not drawn) [Compound 197, 3-(2-chloro-4′-(2-(2-oxopiperidin-1-yl)propan-2-yl)-[1,1′-biphenyl]-3-yl)piperidine-2,6-dione], the Dmax is, setting by setting: (read-out: VAV1 Dmax %) 88.8%; (read-out: VAV1 Dmax %, class) 60 to 90%. The DC50 (read-out: VAV1 DC50) came to 33 nM and the DC50 under setting [1] is at most 100 nM.
With `Cc1c(-c2ccc(Cn3ccccc3=O)cc2)cccc1C1CCC(=O)NC1=O` (stereo not drawn) [Compound 243, 3-[2-methyl-3-[4-[(2-oxo-1-pyridyl)methyl]phenyl]phenyl]piperidine-2,6-dione], the Dmax reads like this: (read-out: VAV1 Dmax %) 56.8%; (read-out: VAV1 Dmax %, class) under 60%. The DC50 is 4220 nM (read-out: VAV1 DC50) and over 1000 nM under setting [1].
`CN1CCC[C@@H](c2ccc(-c3cccc(C4CCC(=O)NC4=O)c3Cl)cc2)C1=O` (stereo partly drawn) [Compound 410, 3-(2-chloro-4′-((S)-1-methyl-2-oxopiperidin-3-yl)-[1,1′-biphenyl]-3-yl)piperidine-2,6-dione]: the Dmax (read-out: VAV1 Dmax %) came out at 92.1% and the Dmax (read-out: VAV1 Dmax %, class) was over 90%. Moreover, the DC50 (read-out: VAV1 DC50) stood at 17 nM and the DC50 under setting [1] was at most 100 nM.
In the same order, the values of `O=C1CCC(c2cccc(-c3ccc(N4C(=O)OCC45CC5)cc3)c2Cl)C(=O)N1` (stereo not drawn) [Compound 426, 3-(2-chloro-4′-(5-oxo-6-oxa-4-azaspiro[2.4]heptan-4-yl)-[1,1′-biphenyl]-3-yl)piperidine-2,6-dione] are 96.5%, over 90%, 8.9 nM and at most 100 nM.
As for `O=C1CCC(c2cccc(-c3ccc(N4C(=O)OCC45CCC5)nc3)c2Cl)C(=O)N1` (stereo not drawn) [Compound 357, 3-(2-chloro-3-(6-(6-oxo-7-oxa-5-azaspiro[3.4]octan-5-yl)pyridin-3-yl)phenyl)piperidine-2,6-dione], the Dmax was 90.8% (read-out: VAV1 Dmax %) and over 90% (read-out: VAV1 Dmax %, class). In addition, the DC50 is, setting by setting: (read-out: VAV1 DC50) 35.8 nM; under setting [1], at most 100 nM.
On to `O=C1CCC(c2c(F)ccc(-c3ccc(Cn4ccccc4=O)cc3)c2F)C(=O)N1` (stereo not drawn) [Compound 147, 3-(2,4-difluoro-4′-((2-oxopyridin-1(2H)-yl)methyl)-[1,1′-biphenyl]-3-yl)piperidine-2,6-dione], for which the “VAV1 Dmax %” value was 33.28%. In addition, under “read-out: VAV1 Dmax %”, the Dmax was determined as 33.3%. In addition, the Dmax (read-out: VAV1 Dmax %, class) is under 60%. The DC50 (read-out: VAV1 DC50) is at least 10000 nM. Also, under setting [1], the DC50 is over 1000 nM.
On to `CNc1ccc(-c2cccc(C3CCC(=O)NC3=O)c2Cl)cc1C` (stereo not drawn) [Compound 116], for which the Dmax runs as follows: (read-out: VAV1 Dmax %) 96%; (read-out: VAV1 Dmax %, class) over 90%. For the same molecule, the DC50 runs as follows: (read-out: VAV1 DC50) 22.3 nM; under setting [1], at most 100 nM.
